Experimental data as given in US10988477B2 (Merck Patent GmbH, priority 2018, dated 2021).
Read-outs that look alike come from different tables or passages of the source.

Key:
[1] = target: intracellular GCN2 (phosphorylation of the GCN2 substrate eIF2α) (Homo sapiens, UniProt Q9P2K8); experiment: GCN2 cellular inhibition assay (AlphaScreen SureFire P-eIF2α Ser51, borrelidin-treated U2OS cells); type: cell-based
Method in brief: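 Compound effect on GCN2 is gauged by eIF2α Ser51 phosphorylation in borrelidin-challenged U2OS cells (10 μM, 1 h). Top compound level is 40 μM final.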

[2] = target: GCN2 kinase (Homo sapiens, UniProt Q9P2K8); experiment: GCN2 enzyme inhibition assay (Transcreener ADP2 fluorescence polarization); type: biochemical; conditions: 280 μM ATP
Sequence of GCN2 kinase (Q9P2K8 whole entry): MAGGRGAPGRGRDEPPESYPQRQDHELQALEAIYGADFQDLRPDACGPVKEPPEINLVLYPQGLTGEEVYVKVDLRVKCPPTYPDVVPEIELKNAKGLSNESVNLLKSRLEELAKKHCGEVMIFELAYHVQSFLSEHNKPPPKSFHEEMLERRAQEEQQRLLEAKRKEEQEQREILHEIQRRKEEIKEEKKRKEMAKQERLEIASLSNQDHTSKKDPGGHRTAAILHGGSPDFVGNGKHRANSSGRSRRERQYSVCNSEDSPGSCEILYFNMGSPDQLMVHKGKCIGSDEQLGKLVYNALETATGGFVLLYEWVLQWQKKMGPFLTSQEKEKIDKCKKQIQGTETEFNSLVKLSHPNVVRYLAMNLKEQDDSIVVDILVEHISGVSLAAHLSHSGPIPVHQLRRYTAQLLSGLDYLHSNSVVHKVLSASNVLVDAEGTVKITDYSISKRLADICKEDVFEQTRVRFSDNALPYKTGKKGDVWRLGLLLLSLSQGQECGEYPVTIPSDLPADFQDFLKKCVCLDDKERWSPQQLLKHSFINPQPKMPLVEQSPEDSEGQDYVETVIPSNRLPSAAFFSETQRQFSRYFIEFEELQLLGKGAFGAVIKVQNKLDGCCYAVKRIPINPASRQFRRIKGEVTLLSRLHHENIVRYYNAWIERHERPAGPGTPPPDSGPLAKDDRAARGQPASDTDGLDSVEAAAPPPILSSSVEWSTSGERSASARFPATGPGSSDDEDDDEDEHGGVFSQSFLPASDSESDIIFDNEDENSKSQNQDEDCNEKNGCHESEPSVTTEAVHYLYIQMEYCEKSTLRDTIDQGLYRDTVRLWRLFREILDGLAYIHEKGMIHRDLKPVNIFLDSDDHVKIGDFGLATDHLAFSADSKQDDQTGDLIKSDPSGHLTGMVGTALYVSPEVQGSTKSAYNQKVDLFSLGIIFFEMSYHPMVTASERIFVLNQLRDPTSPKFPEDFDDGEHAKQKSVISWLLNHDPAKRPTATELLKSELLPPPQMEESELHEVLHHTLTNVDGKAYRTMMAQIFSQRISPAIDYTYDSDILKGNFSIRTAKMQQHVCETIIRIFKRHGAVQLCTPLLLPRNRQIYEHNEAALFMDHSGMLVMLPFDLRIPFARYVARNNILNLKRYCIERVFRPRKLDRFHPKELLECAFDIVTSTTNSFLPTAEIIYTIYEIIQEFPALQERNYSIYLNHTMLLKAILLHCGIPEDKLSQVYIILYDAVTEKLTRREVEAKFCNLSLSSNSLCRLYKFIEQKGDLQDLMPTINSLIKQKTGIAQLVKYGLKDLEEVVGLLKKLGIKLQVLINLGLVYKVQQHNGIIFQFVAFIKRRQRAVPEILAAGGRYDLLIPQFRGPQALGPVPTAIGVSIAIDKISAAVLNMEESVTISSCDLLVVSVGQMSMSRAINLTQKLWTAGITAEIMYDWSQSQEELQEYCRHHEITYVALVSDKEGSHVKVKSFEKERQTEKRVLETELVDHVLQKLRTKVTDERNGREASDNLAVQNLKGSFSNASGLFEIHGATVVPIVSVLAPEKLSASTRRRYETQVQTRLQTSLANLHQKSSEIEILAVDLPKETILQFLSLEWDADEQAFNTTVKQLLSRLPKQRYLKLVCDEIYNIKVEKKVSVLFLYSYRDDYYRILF
Method in brief: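 ADP formation read by Transcreener FP after a 1 h, 25 °C kinase reaction containing 280 μM ATP, 200 μM (RS)7 substrate and 4 nM GCN2, pH 7.5 Tris buffer. Compounds (0–8 μM final) were added 10 min before ATP. Percent inhibition gave IC50 and apparent Ki via tight-binding fit.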

[3] = compounds of Formula IV, biomarker assay, phosphorylated eIF2α Ser51 in borrelidin-treated U2OS cells
[4] = Enzyme activity for compounds of Formula IV, Ki(app), 25° C.
[5] = compounds of Formula II, biomarker assay, phosphorylated eIF2α Ser51 in borrelidin-treated U2OS cells
[6] = compounds of Formula II, 4 nM GCN2 kinase

Sequence of intracellular GCN2 (phosphorylation of the GCN2 substrate eIF2α) (Q9P2K8 whole entry): as above

Structure (SMILES) | IC50 [1, 3] | Ki [2, 4] | IC50 [1, 5] | Ki [2, 6] | other results
OC1CCN(CCC2CCN(c3cc(-c4cnc5ccc(C(F)F)nn45)ncn3)CC2)C1 (stereo not drawn) [II-351, 1-(2-(1-(6-(6-(Difluoromethyl)imidazo[1,2-b]pyridazin-3-yl)pyrimidin-4-yl)piperidin-4-yl)ethyl)pyrrolidin-3-ol] |  |  | > 5000 nM | 10 to 1000 nM | 
CCC1COC(CNS(C)(=O)=O)CN1c1cc(-c2cnc3ccc(C(F)F)nn23)ncn1 (stereo not drawn) [II-267, N-((4-(6-(6-(Difluoromethyl)imidazo[1,2-b]pyridazin-3-yl)pyrimidin-4-yl)-5-ethylmorpholin-2-yl)methyl)methanesulfonamide] |  |  | 500 to 5000 nM | 10 to 1000 nM | 
O=C1CN(c2cc(-c3cnc4ccc(C(F)F)nn34)ccn2)CCN1 [II-62, 4-(4-(6-(Difluoromethyl)imidazo[1,2-b]pyridazin-3-yl)pyridin-2-yl)piperazin-2-one] |  |  | > 5000 nM | 10 to 1000 nM | 
CC1C(CS(C)(=N)=O)CCCN1c1cc(-c2cnc3ccc(C(F)F)nn23)ncn1 (stereo not drawn) [II-486, ((1-(6-(6-(Difluoromethyl)imidazo[1,2-b]pyridazin-3-yl)pyrimidin-4-yl)-2-methylpiperidin-3-yl)methyl)(imino)(methyl)-λ^6-sulfanone] |  |  | 500 to 5000 nM | 10 to 1000 nM | 
CS(=O)(=O)NC[C@H]1CCCN(c2cc(-c3cnc4ccc(C(F)F)nn34)ncn2)C1 [II-300, (S)—N-((1-(6-(6-(Difluoromethyl)imidazo[1,2-b]pyridazin-3-yl)pyrimidin-4-yl)piperidin-3-yl)methyl)methanesulfonamide] |  |  | < 500 nM | < 10 nM | 
FC(F)(F)c1cn2c(-c3nccc(N4CCOC(c5cn[nH]c5)C4)n3)cnc2s1 (stereo not drawn) [Compound V-15, 2-(1H-Pyrazol-4-yl)-4-[2-[2-(trifluoromethyl)imidazo[2,1-b]thiazol-5-yl]pyrimidin-4-yl]morpholine] |  |  |  |  | IC50 ([1]; compounds of Formula V, U2OS cells, 10 μM borrelidin, 1 h, read-out: GCN2 Biomarker (IC50)): < 500 nM; Ki ([2]; compounds of Formula V, 4 nM GCN2 kinase): < 10 nM
FC(F)c1ccc2ncc(-c3ccnc(N4CC5(CNC5)C4)c3)n2n1 [II-79, 3-(2-(2,6-Diazaspiro[3.3]heptan-2-yl)pyridin-4-yl)-6-(difluoromethyl)imidazo[1,2-b]pyridazine] |  |  | > 5000 nM | 10 to 1000 nM | 
O=S(=O)(N[C@H]1CCCN(c2cc(-c3cnc4ccc(C(F)F)nn34)ncn2)C1)C1CC1 [II-442, (S)—N-(1-(6-(6-(Difluoromethyl)imidazo[1,2-b]pyridazin-3-yl)pyrimidin-4-yl)piperidin-3-yl)cyclopropanesulfonamide] |  |  | > 5000 nM | 10 to 1000 nM | 
CS(=O)(=O)NCC1CN(c2cc(-c3cnc4ccc(C(F)F)nn34)ccn2)CCC1(F)F (stereo not drawn) [II-153, N-[[1-[4-[6-(Difluoromethyl)imidazo[1,2-b]pyridazin-3-yl]-2-pyridyl]-4,4-difluoro-3-piperidyl]methyl]methanesulfonamide] |  |  | < 500 nM | < 10 nM | 
CS(=O)(=O)NCC1CN(c2cc(-c3cnc4ccc(C(F)F)nn34)ncn2)CC(C2CC2)O1 (stereo not drawn) [II-444, N-((6-Cyclopropyl-4-(6-(6-(difluoromethyl)imidazo[1,2-b]pyridazin-3-yl)pyrimidin-4-yl)morpholin-2-yl)methyl)methanesulfonamide] |  |  | < 500 nM | < 10 nM | 
CC(=O)N1CCN(c2cc(-c3cnc4ccc(Cl)nn34)ccn2)CC1 [II-208, 1-(4-(4-(6-Chloroimidazo[1,2-b]pyridazin-3-yl)pyridin-2-yl)piperazin-1-yl)ethanone] |  |  | > 5000 nM | 10 to 1000 nM | 
CC(=O)N1CCCN(c2cc(-c3cnc4ccc(C(F)F)nn34)ccn2)CC1 [II-163, 1-(4-(4-(6-(Difluoromethyl)imidazo[1,2-b]pyridazin-3-yl)pyridin-2-yl)-1,4-diazepan-1-yl)ethanone] |  |  | 500 to 5000 nM | 10 to 1000 nM | 
[O-][S+]1CCN(c2cc(-c3cnc4ccc(C(F)F)nn34)ncn2)CC1 [II-296, 4-(6-(6-(Difluoromethyl)imidazo[1,2-b]pyridazin-3-yl)pyrimidin-4-yl)thiomorpholine 1-oxide] |  |  | > 5000 nM | > 1000 nM | 
FC(F)c1ccc2ncc(-c3cc(N4CCC5C(C4)C5(F)F)ncn3)n2n1 (stereo not drawn) [II-274, 3-(6-(7,7-Difluoro-3-azabicyclo[4.1.0]heptan-3-yl)pyrimidin-4-yl)-6-(difluoromethyl)imidazo[1,2-b]pyridazine] |  |  | > 5000 nM | 10 to 1000 nM | 

Second part, led by results:

IC50 [1, 3] | Ki [2, 4] | IC50 [1, 5] | Ki [2, 6] | Structure (SMILES) | other results
500 to 5000 nM | 100 to 1000 nM |  |  | FC(F)(F)c1cn2c(-c3nccc(N4CCCC(c5ncco5)C4)n3)cnc2cn1 (stereo not drawn) [IV-686, 2-(1-(2-(6-(Trifluoromethyl)imidazo[1,2-a]pyrazin-3-yl)pyrimidin-4-yl)piperidin-3-yl)oxazole] | 
500 to 5000 nM | < 10 nM |  |  | FC(F)(F)c1cn2c(-c3nccc(N4CCCC(c5c[nH]c(Cl)n5)C4)n3)cnc2cn1 (stereo not drawn) [IV-409, 3-(4-(3-(2-Chloro-1H-imidazol-4-yl)piperidin-1-yl)pyrimidin-2-yl)-6-(trifluoromethyl)imidazo[1,2-a]pyrazine] | 
< 500 nM | < 10 nM |  |  | FC(F)(F)c1cn2c(-c3nccc(N4CCCC(c5cn[nH]n5)C4)n3)cnc2cn1 (stereo not drawn) [IV-378, 3-(4-(3-(2H-1,2,3-Triazol-4-yl)piperidin-1-yl)pyrimidin-2-yl)-6-(trifluoromethyl)imidazo[1,2-a]pyrazine] | 
> 5000 nM | 100 to 1000 nM |  |  | O=S(=O)(NC1CCCC1)C1CCCN(c2ccnc(-c3cnc4cnc(C(F)F)cn34)n2)C1 (stereo not drawn) [IV-171, N-Cyclopentyl-1-(2-(6-(difluoromethyl)imidazo[1,2-a]pyrazin-3-yl)pyrimidin-4-yl)piperidine-3-sulfonamide] | 
500 to 5000 nM | < 10 nM |  |  | CC1C(c2cn[nH]c2)NCCN1c1ccnc(-c2cnc3cnc(C(F)(F)F)cn23)n1 (single isomer, unassigned) [IV-358, 3-(4-(2-Methyl-3-(1H-pyrazol-4-yl)piperazin-1-yl)pyrimidin-2-yl)-6-(trifluoromethyl)imidazo[1,2-a]pyrazine] | 
> 5000 nM | 100 to 1000 nM |  |  | OCC1CCCN1c1ccnc(-c2cnc3cnc(C(F)(F)F)cn23)n1 (stereo not drawn) [IV-436, (1-(2-(6-(Trifluoromethyl)imidazo[1,2-a]pyrazin-3-yl)pyrimidin-4-yl)pyrrolidin-2-yl)methanol] | 
> 5000 nM | 10 to 100 nM |  |  | N#Cc1cn2c(-c3nccc(N4CCCC(c5c[nH]cn5)C4)n3)cnc2cn1 (stereo not drawn) [IV-341, 3-(4-(3-(1H-Imidazol-4-yl)piperidin-1-yl)pyrimidin-2-yl)imidazo[1,2-a]pyrazine-6-carbonitrile] | 
> 5000 nM | 100 to 1000 nM |  |  | CC(=O)N1CCN(c2ccnc(-c3cnc4cnc(C5CC5)cn34)n2)CC1 [IV-33, 1-(4-(2-(6-Cyclopropylimidazo[1,2-a]pyrazin-3-yl)pyrimidin-4-yl)piperazin-1-yl)ethan-1-one] | 
> 5000 nM | 10 to 100 nM |  |  | CC1(c2n[nH]cc2C2CCN(c3ccnc(-c4cnc5cnc(C(F)(F)F)cn45)n3)C2)CC1 (stereo not drawn) [IV-630, 3-(4-(3-(3-(1-Methylcyclopropyl)-1H-pyrazol-4-yl)pyrrolidin-1-yl)pyrimidin-2-yl)-6-(trifluoromethyl)imidazo[1,2-a]pyrazine] | 
500 to 5000 nM | 10 to 100 nM |  |  | FC(F)OC1CC(c2cn[nH]c2)CN(c2ccnc(-c3cnc4cnc(C(F)(F)F)cn34)n2)C1 (stereo not drawn) [IV-472, 3-(4-(3-(Difluoromethoxy)-5-(1H-pyrazol-4-yl)piperidin-1-yl)pyrimidin-2-yl)-6-(trifluoromethyl)imidazo[1,2-a]pyrazine] | 
